From US6303789A, “Benzamides with tetrahydrofuranyloxy substitutents as phosphodiesterase 4 inhibitors” (Byk Gulden Lomberg Chemische Fabrik GmbH, priority 1998, dated 2001)

Tested on: PDE4
Experiment: Inhibition of PDE4 activity (method of Bauer and Schwabe, adapted to microtiter plates)
Format: biochemical
Conditions: inhibitory concentration as -log IC50 (mol/l)

In order of rising “Inhibition of the PDE4 activity, -log IC50” value:
1. COc1ccc(C(=O)Nc2c(Cl)cncc2Cl)cc1OC1COCC1O (stereo not shown) [Compound 6, N-(3,5-Dichloropyridin-4-yl)-3-(4-hydroxytetrahydrofuran-3-yloxy)-4-methoxybenzamide]  8.02
2. COc1ccc(C(=O)Nc2c(Cl)cncc2Cl)c2c1OC1(COCC1OC)C2 (stereo not shown) [Compound 4, N-(3,5-Dichloropyridin-4-yl)-2,3-dihydro-4',7-dimethoxybenzofuran-2-spiro-3'-tetrahydro-furan-4-carboxamide]  8.11
3. COc1ccc(C(=O)Nc2c(Cl)cncc2Cl)cc1OC1COCC1OC (stereo not shown) [Compound 1, N-(3,5-Dichloropyridin-4-yl)-4-methoxy-3-(4-methoxytetrahydrofuran-3-yloxy)benzamide]  8.24
4. CCOC1COCC1Oc1cc(C(=O)Nc2c(Cl)cncc2Cl)ccc1OC (stereo not shown) [Compound 2, N-(3,5-Dichloropyridin-4-yl)-3-(4-ethoxytetrahydrofuran-3-yloxy)-4-methoxybenzamide]  8.25
5. COc1ccc(C(=O)Nc2c(Cl)cncc2Cl)cc1OC1COCC1OCSC (stereo not shown) [Compound 7, N-(3,5-Dichloropyridin-4-yl)-4-methoxy-3-(4-methylthiomethyloxytetrahydrofuran-3-yloxy)-benzamide]  8.54
6. COc1ccc(C(=O)Nc2c(Cl)cncc2Cl)c2c1OC1(COCC1OCc1ccccc1)C2 (stereo not shown) [Compound 5, N-(3,5-Dichloropyridin-4-yl)-2,3-dihydro-4'-benzyloxy-7-methoxybenzofuran-2-spiro-3'-tetrahydrofuran-4-carboxamide]  8.58
7. COc1ccc(C(=O)Nc2c(Cl)cncc2Cl)cc1OC1COCC1OCc1ccccc1 (stereo not shown) [Compound 3, N-(3,5-Dichloropyridin-4-yl)-3-(4-benzyloxytetrahydrofuran-3-yloxy)-4-methoxybenzamide]  8.70
